# From patent US20090060851A1, “USE OF IDEBENONE FOR THE PREPARATION OF A TOPICALLY-APPLIED DEPIGMENTATION COMPOSITION AND CORRESPONDING COMPOSITION” (priority 2005, published 2009)
# Assays:
# SK-MEL-28 = assay: Cell number quantitation with violet crystal; assay type: cell-based, human
# Description: Cells: The study was carried out using a cell line derived from human melanoma, provided by ABAC (Asociación Banco Argentino de Células—Cell Bank of Argentina), with melanin synthesis capability (SK-MEL-28, ATCC origin). […] Study of in vitro compounds: […] After 24 hours have lapsed, the medium was replaced with 990 μl of fresh medium. 10 μl of sterile vehicle (50% propylene glycol, 30% ethanol and 20% distilled water) containing different concentrations of the compounds to be evaluated were added to this fresh medium. […] On the fourth day, the cells were not treated, and the remaining adherent cells were assayed on the fifth day according to the methods described below. The cells were thus continuously exposed to the compounds under study for the 5 days the culture lasted. All the concentrations of the compounds were studied in triplicate, comparing the mean of the 3 wells treated with the compounds with those treated with the vehicle alone. Cell number quantitation with violet crystal: A stain with a violet crystal aqueous solution was used for the purpose of determining the number of cells adhering to the plastic surviving in vitro treatment by means of indirect methods. […] The dishes were stained for 5 minutes at room temperature on a rotary platform, with gentle stirring. Then the excess colorant was decanted by turning the dish over and the entire dish was submerged 4 times in distilled water in a suitable container. After rinsing, the dishes were turned over and allowed to drip on absorbent paper until the excess water was completely removed. […] The plates were finally placed on a rotary agitator for 30 minutes at room temperature. […] In order to determine the fraction of cells surviving treatment at a specific concentration of the experimental agent, the OD590 of the treated wells (average of three measurements) was divided by the OD590 of the wells used with a control vehicle (average of three measurements).
# skin of nude adult mice = assay: Epidermal and dermal morphometry, mouse skin; assay type: in vivo
# Description: Creams containing 5% and 2.5% w/w idebenone (IDB) in a neutral phase were prepared. Said creams and a cream having an identical formulation but without idebenone were applied on nude adult mice with 3 months of age. The cream with idebenone was applied on the right half of the body of the animals and the control cream on the left half according to the scheme detailed below. The animals were sacrificed 1, 2, 3 or 4 hours after applying the cream (p.a.). • Batch A: animal treated with 5% IDB (1 hour p.a.) • Batch B: animal treated with 2.5% IDB (1 hour p.a.) • Batch C: animal treated with 5% IDB (2 hours p.a.) • Batch D: animal treated with 2.5% IDB (2 hours p.a.) • Batch E: animal treated with 5% IDB (3 hours p.a.) • Batch F: animal treated with 2.5% IDB (3 hours p.a.) • Batch G: animal treated with 5% IDB (4 hours p.a.) • Batch H: animal treated with 2.5% IDB (4 hours p.a.)
# Morphological and morphometric studies: Thickness of the epidermis, the horny layer, the papillary dermis and reticular dermis was measured in at least 10 different points, the result being expressed as the average of the 10 measurements. Capillary vessel diameter was also measured in at least 10 points, expressing them by means of their average. The measurements were carried out using a Quantimet 500+ (Leica) image processing equipment. […]
structure (smiles),measurement,setting,value
"COC1=C(OC)C(=O)C(CCCCCCCCCCO)=C(C)C1=O [idebenone, 6-(10-hydroxydecyl)-2,3-dimethoxy-5-methyl-1,4-benzoquinone]",Toxicity for cells,"SK-MEL-28; SK-MEL-28, high concentrations",may be toxic for cells
same,Percentage of viable cells,"SK-MEL-28; dilution −1, percentage of control vehicle",52%
same,Percentage of viable cells,"SK-MEL-28; dilution −2, percentage of control vehicle",82%
same,Percentage of viable cells,"SK-MEL-28; dilution −3, percentage of control vehicle",98%
same,Percentage of viable cells,"SK-MEL-28; dilution −4, percentage of control vehicle",100%
same,Percentage of viable cells,"SK-MEL-28; dilution −5, percentage of control vehicle",100%
same,Thicknesses of the papillary dermis and the reticular dermis,"skin of nude adult mice; nude mice skin, 5% and 2.5% IDB creams versus control",did not significantly vary
same,Effect on epidermal thickness,"skin of nude adult mice; nude mice, topically applied",does not substantially modify epidermal thickness
